Test results taken from US12474342B2, “Methods for treating cancer and the use of biomarkers as a predictor of clinical sensitivity to therapies” (CELGENE CORPORATION, priority 2016, dated 2025).
Read-outs that look alike come from different tables or passages of the source.

Experiments:
GSPT1 [1] = molecular target: T1, GSPT1 (Homo sapiens, UniProt P15170+Q96SW2); assay: GSPT1 protein reduction, western analysis, OCI-AML2; assay type: cell-based; design: reduction in GSPT1 protein level was evaluated in human normal PBMCs; endogenous in cells; host or cells: primary PBMCs from normal donors (ID 4328, 4379) and AML patients (ID 11SH, 09P6); settings: for degradation of GSPT1: 100 nM
Method: Thus, Compound D-induced GSPT1 degradation is also CRBN-dependent.
(§1) The reduction in the level of GSPT1 protein was concentration-dependent over the range of 3 to 1000 nM in eight of the nine AML cell lines and over the range of 300 to 1000 nM in one relatively insensitive AML cell line. The time course of the reduction in GSPT1 by Compound D also was studied for up to 48 hours. The progressive degradation of GSPT1 over the course of 1 to 20 hours was evident in the presence of all concentrations of Compound D studied from 3 to 300 nM in HNT-34, HL-60, and ML-2 cells, with little GSPT1 remaining by 20 hours at 100 or 300 nM Compound D in HNT-34 or HL-60 cells (FIG. 34 and FIG. 35C). Time-dependent reduction in GSPT1 was also observed in KG-1 and OCI-AML2 cells at 3 to 1000 nM Compound D, with little GSPT1 remaining in KG-1 cells at 100 to 300 nM at 24 hours or in OCI-AML2 cells at 300 and 1000 nM at 24 hours (FIG. 35D). Loss of GSPT1 occurred more slowly in Kasumi-1, AML-193, and F36-P cells.
Compound D-mediated GSPT1 reduction at 8 hours was compared to induction of caspase 3/7 activation (apoptosis) at 12, 24, and 48 hour time points in these nine AML cell lines. […] A positive association (r^2=0.50; R=0.71; p value=4.86E-002) was observed between the level of GSPT1 reduction and apoptosis induction in the AML cell panel (FIG. 36), with >90% GSPT1 reduction correlating with induction of apoptosis.

AML-193 cells = assay: Apoptosis (caspase 3/7 activation), AML-193; assay type: cell-based, human; settings: for EC50: Homo sapiens, read-out: Compound D-induced Apoptosis EC50
GSPT1 [2] = molecular target: T1, GSPT1; assay: GSPT1 protein reduction, western analysis, HL-60; assay type: cell-based; design: reduction in GSPT1 protein level was evaluated in human normal PBMCs; endogenous in cells; host or cells: primary PBMCs from normal donors (ID 4328, 4379) and AML patients (ID 11SH, 09P6)
Method: as §1, with “FIG. 30C [HL-60])” for “The reduction in the level of GSPT1 protein was concentration-dependent over the range of 3 to 1000 nM in eight of the nine AML cell lines”, “48-hour (FIG. 30B [KG-1]; FIG. 30D [HL-60]) time points. […]” for “over the range of 300 to 1000 nM in one relatively insensitive AML cell line.”, “F36-P” left out, “cells. […] A positive association (r^2=0.50; […]” for “cells.”

XBP1 = XBP1 assay in U937 cells; assay type: cell-based, human; settings: 0.5 μM TG for 6 hours or 4 μM Compound D for 8, 16, or 32 hours
Method: IRE1, a kinase that activates the XBP1 pathway, was knocked out in U937 cells by CRISPR-mediated gene editing using IRE1 CRISPR constructs. Wild type U937 cells or IRE1 CRISPR knockout U937 cells were treated with 0.5 μM TG for 6 hours or 4 μM Compound D for 8, 16, or 32 hours, then subject to XBP1 assay.

ATF4 = ATF4 protein induction, western blot, HNT-34; assay type: cell-based, human; settings: HNT-34, 10 nM Compound D
Method: The time course of GSPT1 degradation was monitored by western blot analysis of HNT-34 AML cells and normal PBMCs (FIGS. 32A-32D) following incubation with Compound D (1, 10, and 100 nM).

KG-1 cells [3] = assay: Anti-proliferation CTG assay, KG-1; assay type: cell-based, human
Method: The effect of depletion of GSPT1 on the anti-proliferative effect of compound Compound D and Compound E was also determined in human acute myelogenous leukemia cell lines AML and KG1. […]

KG-1 cells [4] = assay: Apoptosis (caspase 3/7 activation), KG-1; assay type: cell-based, human; settings: for EC50: Homo sapiens, read-out: Compound D-induced Apoptosis EC50

T1 sequence (P15170 1-637 isoform P15170-3): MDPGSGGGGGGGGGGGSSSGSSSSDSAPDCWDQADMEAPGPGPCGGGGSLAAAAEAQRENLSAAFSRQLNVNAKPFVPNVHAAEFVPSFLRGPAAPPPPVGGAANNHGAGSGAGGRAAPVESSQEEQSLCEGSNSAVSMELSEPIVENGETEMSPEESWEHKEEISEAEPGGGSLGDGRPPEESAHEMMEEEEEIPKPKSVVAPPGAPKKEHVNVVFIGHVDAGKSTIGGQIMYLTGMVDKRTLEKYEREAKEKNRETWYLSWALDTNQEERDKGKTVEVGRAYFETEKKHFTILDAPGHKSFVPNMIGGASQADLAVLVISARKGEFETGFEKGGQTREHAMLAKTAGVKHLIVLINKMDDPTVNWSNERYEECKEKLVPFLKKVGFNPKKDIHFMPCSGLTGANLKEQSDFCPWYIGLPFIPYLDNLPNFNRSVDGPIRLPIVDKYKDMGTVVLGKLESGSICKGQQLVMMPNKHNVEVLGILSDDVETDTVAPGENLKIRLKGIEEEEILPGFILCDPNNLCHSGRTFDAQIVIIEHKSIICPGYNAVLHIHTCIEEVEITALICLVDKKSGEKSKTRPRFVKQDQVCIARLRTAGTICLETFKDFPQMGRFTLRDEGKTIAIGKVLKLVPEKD
T1 sequence (Q96SW2 whole entry): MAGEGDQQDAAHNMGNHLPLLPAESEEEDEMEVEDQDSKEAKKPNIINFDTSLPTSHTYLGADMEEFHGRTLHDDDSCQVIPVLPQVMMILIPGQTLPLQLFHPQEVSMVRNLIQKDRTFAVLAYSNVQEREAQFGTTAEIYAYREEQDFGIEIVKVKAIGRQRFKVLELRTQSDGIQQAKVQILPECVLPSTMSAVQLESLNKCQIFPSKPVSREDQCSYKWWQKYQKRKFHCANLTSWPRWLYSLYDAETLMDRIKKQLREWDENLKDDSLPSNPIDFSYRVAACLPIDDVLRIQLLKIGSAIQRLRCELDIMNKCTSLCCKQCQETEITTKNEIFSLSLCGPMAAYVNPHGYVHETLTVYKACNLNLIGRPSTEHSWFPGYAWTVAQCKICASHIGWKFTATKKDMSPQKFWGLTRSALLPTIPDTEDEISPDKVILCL
T1 sequence (Q16531 whole entry partner): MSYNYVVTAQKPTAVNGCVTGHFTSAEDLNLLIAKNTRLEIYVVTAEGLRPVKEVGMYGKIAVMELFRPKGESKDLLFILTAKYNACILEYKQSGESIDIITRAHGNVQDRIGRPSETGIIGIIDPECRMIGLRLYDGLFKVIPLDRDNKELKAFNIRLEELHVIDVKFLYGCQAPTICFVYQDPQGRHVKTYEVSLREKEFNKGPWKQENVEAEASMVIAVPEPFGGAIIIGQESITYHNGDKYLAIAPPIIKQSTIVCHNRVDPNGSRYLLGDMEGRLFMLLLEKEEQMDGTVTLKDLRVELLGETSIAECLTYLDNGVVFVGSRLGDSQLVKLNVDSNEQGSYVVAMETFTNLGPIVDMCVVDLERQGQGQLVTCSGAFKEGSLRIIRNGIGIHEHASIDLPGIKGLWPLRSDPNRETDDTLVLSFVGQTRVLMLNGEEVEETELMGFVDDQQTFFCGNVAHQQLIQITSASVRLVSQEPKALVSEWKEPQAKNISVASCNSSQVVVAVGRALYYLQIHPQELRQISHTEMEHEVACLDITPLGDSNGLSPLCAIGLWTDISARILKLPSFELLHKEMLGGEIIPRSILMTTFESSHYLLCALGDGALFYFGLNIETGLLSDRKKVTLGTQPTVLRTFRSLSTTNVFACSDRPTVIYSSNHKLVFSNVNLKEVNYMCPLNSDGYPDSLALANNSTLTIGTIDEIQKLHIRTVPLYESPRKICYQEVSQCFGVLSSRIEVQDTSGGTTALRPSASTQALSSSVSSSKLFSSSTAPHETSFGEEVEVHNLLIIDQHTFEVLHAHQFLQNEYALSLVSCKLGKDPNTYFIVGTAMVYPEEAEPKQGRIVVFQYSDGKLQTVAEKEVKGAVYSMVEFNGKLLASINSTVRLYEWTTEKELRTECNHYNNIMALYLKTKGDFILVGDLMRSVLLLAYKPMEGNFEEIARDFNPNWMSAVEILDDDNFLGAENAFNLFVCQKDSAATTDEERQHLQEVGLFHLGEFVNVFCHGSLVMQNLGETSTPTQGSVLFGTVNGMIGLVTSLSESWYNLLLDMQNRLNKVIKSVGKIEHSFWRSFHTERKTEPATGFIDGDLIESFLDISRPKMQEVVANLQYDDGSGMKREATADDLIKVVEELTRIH

With `O=C1CCC(N2Cc3cc(CNC(=O)C(F)(F)c4ccc(Cl)cc4)ccc3C2=O)C(=O)N1` (stereo not drawn) [Compound D, 2-(4-chlorophenyl)-N-((2-(2,6-dioxopiperidin-3-yl)-1-oxoisoindolin-5-yl)methyl)-2,2-difluoroacetamide] the “degradation of GSPT1” value (GSPT1 [1]; CRBN -/- OCI-AML2 cells) was “could not induce degradation”, the “reduction of GSPT1 protein levels” value (GSPT1 [1]; OC-AML2, 100 nM Compound D, 8 hours) was “greater than 800” and the “Percent Reduction at 100 nM Compound D GSPTI (8 hr)” value (GSPT1 [1]; OCI-AML2, 100 nM, 8 hr) was 89%. For the same molecule, the “degradation of GSPT1” value (GSPT1 [1]; parental OCI-AML2 cells) was “induced degradation”, the “Average Percent Increase in Apoptosis at 123 nM Compound D, Apoptosis (12 hr)” value (AML-193 cells; AML-193, 123 nM, 12 hr) was 0% and the “Average Percent Increase in Apoptosis at 123 nM Compound D, Apoptosis (24 hr)” value (AML-193 cells; AML-193, 123 nM, 24 hr) was 5%. For the same molecule, the “Average Percent Increase in Apoptosis at 123 nM Compound D, Apoptosis (48 hr)” value (AML-193 cells; AML-193, 123 nM, 48 hr) was 40%, the EC50 (AML-193 cells; AML-193, 48 hr) was 89 nM and the EC50 (AML-193 cells; AML-193, 72 hr) was 47 nM. The EC50 (AML-193 cells; AML-193, 96 hr) was 60 nM, the “reduction of GSPT1 protein levels” value (GSPT1 [2]; HL-60, 100 nM Compound D, 4 hours) was “greater than 800” and the “reduction of GSPT1” value (GSPT1 [2]; HL-60, >30 nM Compound D, 8 hours) was “complete reduction”. The XBP1 pathway (XBP1) was “activated the XBP1 pathway”, the “time of induction of ATF4 protein” value (ATF4) was 8 h and the IC50 (KG-1 cells [3]; Homo sapiens, KG-1, KG-1, Compound F 0 μM, read-out: Inhibition of Cell Proliferation by Compound D (CTG assay) IC50) was 10 nM. The IC50 (KG-1 cells [3]; Homo sapiens, KG-1, KG-1, Compound F 30 μM, read-out: Inhibition of Cell Proliferation by Compound D (CTG assay) IC50) was 1500 nM, the IC50 (KG-1 cells [3]; Homo sapiens, KG-1, 72-hour CTG assay, read-out: IC50 of the anti-proliferative effect) was 15 nM and the “cell proliferation (CellTiter-Glo)” value (KG-1 cells [3]; KG1 parental or control shRNA cells, 0.0001 μM to 1 μM, two days) was “exhibited anti-proliferative effect, particularly at high concentration”. It also gave an IC50 (KG-1 cells [3]; read-out: Inhibition of Cell Proliferation by Compound D (CTG assay) IC50) of 6800 nM, an EC50 (KG-1 cells [4]; KG-1, 12 hr) of 53 nM and an EC50 (KG-1 cells [4]; KG-1, 48 hr) of 39 nM. For the same molecule, the EC50 (KG-1 cells [4]; KG-1, 72 hr) was 26 nM, the EC50 (KG-1 cells [4]; KG-1, 96 hr) was 25 nM and the “average percent increase in apoptosis” value (KG-1 cells [4]; KG-1, 41 nM, 24 hour time point) was 11%. The “Average Percent Increase in Apoptosis at 123 nM Compound D, Apoptosis (12 hr)” value (KG-1 cells [4]; KG-1, 123 nM, 12 hr) was 2%, the “Average Percent Increase in Apoptosis at 123 nM Compound D, Apoptosis (24 hr)” value (KG-1 cells [4]; KG-1, 123 nM, 24 hr) was 16% and the “Average Percent Increase in Apoptosis at 123 nM Compound D, Apoptosis (48 hr)” value (KG-1 cells [4]; KG-1, 123 nM, 48 hr) was 42%.
